Two compounds from patent US20110110886A1, “SMALL MOLECULE INHIBITORS OF AUTOTAXIN AND METHODS OF USE” (Yale University, priority 2008, published 2011) can be followed below.

Test [1] has as its system Human breast adenocarcinoma cells, MDA-MB-231. In words: Matrigel cell invasion assay, breast cancer cells. The note with it: 50 nM ATX. Type of test: cell-based. The protocol: Cell culture: Human melanoma cells, A2058 (ATCC), were grown in Dulbecco's Modified Eagle's Medium (DMEM) (Gibco), MeI 28 (ATCC), YUSAC2 (Yale University) and MeI-888 (Yale University) were grown in OptiMEM media (Gibco), and HTB 63 (ATCC) were grown in McKoy's 5a medium (ATCC). Human breast adenocarcinoma cells, MDA-MB-231(ATCC) and ovarian carcinoma cells R182 (Gil Mor, Yale University) were grown in RPMI-1640 (Gibco). All cell media was supplemented with 10% (v/v) fetal calf serum (FCS) (Gibco) and 1% (v/v) L-glutamine (Gibco) and grown at 37° C. in a humidified atmosphere containing 5% CO2.
Cell invasion assays: Matrigel matrix (1 mg/ml, Becton Dickenson) was added to […] gelatin-coated membranes placed in cell culture inserts (BD Falcon) and allowed to set for 24 hours at room temperature. The inserts were placed into companion 24 well plates (BD Falcon), and chemo-attractants (ATX ±inhibitors) and/or controls were added to the bottom of the wells. Cells (1×10^6) were added to the inserts and incubated for 3 hours at 37° C. Following incubation, the inserts were removed, fixed in 100% methanol, stained with DiffQuick solution, and mounted on glass slides. Non-invading cells were removed by scraping away the matrigel, and migrating cells were quantitated by counting cell number per high-powered field.

The target in test [2] is T1, ATX (recombinant full-length human ATX), PDE activity (Homo sapiens, UniProt Q13822).
T1 construct: consistent with a mature, glycosylated form of the enzyme; TEV cleavage site (C); 9-His (C); 6-His (C); made in house; host or cells: High Five insect cells (baculovirus, p-DEST-8)
Kind of test: Steady-state ATX phosphodiesterase (PDE) activity with pNP-TMP, absorbance 405 nm. The note with it: substrate pNP-TMP; for Ki: 25° C. Type of test: biochemical. The source says: Protein expression and purification: The full length human NPP2 gene (NCBI accession #BC034961) followed by a C-terminal TEV cleavage site and a 9-His and 6-His purification tag was cloned and transferred into a p-DEST-8 baculovirus shuttle vector (Invitrogen), and bacmid DNA was generated by standard methods. The DNA sequence and correct transposition of the genes was verified by PCR, and recombinant full-length human ATX was expressed in High Five insect cells using standard methods. Three days post infection, the supernatant was adjusted to a final concentration of 50 mM Tris pH 8.0, 5 mM CaCl2, and 1 mM NiSO4 and stirred for 10 min. at room temperature. The resulting precipitant was removed by centrifugation (4,420×g for 30 minutes) and filtration ([…]), and the supernatant was concentrated using a Pall concentration system to approximately 250 mL. The cell media was passed over a nickel affinity column (5 mL, Fastflow resin), equilibrated in binding buffer (20 mM Tris pH 8.0, 300 mM NaCl, 20 mM imidazole, and 20% ethylene glycol) at 4° C., washed with 10 column volumes of binding buffer, and then eluted with binding buffer supplemented with 300 mM imidazole. Purified ATX was concentrated to approximately 10 mg mL^−1, and dialyzed into the appropriate assay buffer.
Steady-state enzyme assays: Phosphodiesterase activity of ATX (75-100 nM) was measured by absorbance (λ=405 nm) on a SpectraMax 250 plate reader at 25° C. with the substrate pNP-TMP [36]. Reactions were run in assay buffer containing 10% DMSO (v/v) and 1 mg mL^−1 BSA (hexachlorophene, merbromin, and bithionol) or without BSA (NSC 48300, 2,2′-Methylenebis(4-chlorophenol), eosin Y, and RJC 03297) in a total volume of […]. The uncatalyzed reaction rate was ≦10^−7 s^−1 (data not shown).
The steady-state rates (v) of product formation were obtained by fitting the time courses of absorbance or fluorescence change to linear functions. Absorbance units were converted to p-nitrophenylate concentration using ε405 of 18.5 mM^−1 cm^−1 [39] and a measured path length of 0.494 cm. FS-3 hydrolysis product formation was quantitated in arbitrary fluorescence units.
(§1) The Michaelis constants (KM) and the catalytic turnover rate constants (kcat) were obtained by fitting the [substrate]-dependence of v to a rectangular hyperbola in the form of the Briggs-Haldane equation: […]
(§2) in which [S] is [pNP-TMP] or [FS-3]. Inhibitors were treated as reversible inhibitors and analyzed according to the general steady-state linear enzyme inhibitor scheme:
(§3) in which E is ATX, S is pNP-TMP or FS-3 substrate, P are the hydrolysis products, and K1 is the dissociation equilibrium constant for inhibitor binding. The values of α and K1 were obtained by fitting the steady-state rates of product formation (v) to the general inhibition equation: […]
(§4) in which [I] is the inhibitor concentration, kcat is the maximum catalytic turnover rate, and KS is the Michaelis constant of the substrate obtained in the absence of inhibitor.
(§5) The type of inhibition (competitive, noncompetitive, or uncompetitive) depends on the value of α.
(§6) The type of inhibition was assigned if the difference between the r^2 values of the fits to the general inhibition equation (Eq 2) and the specific inhibition (i.e. competitive, noncompetitive or uncompetitive) equations was less than 0.01.

In test [3] the test system is human melanoma cell line (A2058). Kind of test: Boyden chamber cell migration assay, melanoma cells. The test is classed as cell-based. The note with it: A2058, 50 nM ATX, 4 hours. The protocol: All cell media was supplemented with 10% (v/v) fetal calf serum (FCS) (Gibco) and 1% (v/v) L-glutamine (Gibco) and grown at 37° C. in a humidified atmosphere containing 5% CO2.
The assay chambers are divided by a gelatin-coated membrane with […] pores (NeuroProbe). […] The chambers were then incubated at 37° C. for 4 hours, after which the filters were removed, fixed in 100% methanol, stained with a DiffQuick solution, and mounted onto glass slides. Non-migrating cells were removed from the membrane by scraping the top surface. The cells were quantitated by counting the cell number per high powered field in the various wells. Treatments were compared using a chi squared test.

Test [4] addresses T2, ATX (recombinant full-length human ATX), lysoPLD activity (Homo sapiens, UniProt Q13822).
T2 construct: consistent with a mature, glycosylated form of the enzyme; TEV cleavage site (C); 9-His (C); 6-His (C); made in house; host or cells: High Five insect cells (baculovirus, p-DEST-8)
Kind of test: Steady-state ATX lysoPLD activity with fluorescent LPC analogue FS-3. Type of test: biochemical. Particulars: for type of inhibition of ATX lysoPLD activity: substrate FS-3; for Ki: substrate FS-3, 37° C. The protocol: Protein expression and purification: The full length human NPP2 gene (NCBI accession #BC034961) followed by a C-terminal TEV cleavage site and a 9-His and 6-His purification tag was cloned and transferred into a p-DEST-8 baculovirus shuttle vector (Invitrogen), and bacmid DNA was generated by standard methods. […] Three days post infection, the supernatant was adjusted to a final concentration of 50 mM Tris pH 8.0, 5 mM CaCl2, and 1 mM NiSO4 and stirred for 10 min. at room temperature. […] Purified ATX was concentrated to approximately 10 mg mL^−1, and dialyzed into the appropriate assay buffer.
Fluorescence was measured (λex=485 nm, λem=520 nm) on a SpectraMax Gemini XPS at 37° C. under buffer conditions similar to the PDE assays but lacking BSA. […] The spontaneous reaction rates were subtracted from the enzyme catalyzed rates.
The steady-state rates (v) of product formation were obtained by fitting the time courses of absorbance or fluorescence change to linear functions. […] FS-3 hydrolysis product formation was quantitated in arbitrary fluorescence units.
as §1, §2, §3, §4, §5, §6

Where two headings read alike, the source gives them in different places.

A word on the Ki: it is the dissociation constant of the complex between target and ligand, obtained from inhibition or displacement. For `O=[As](O)(O)c1ccc(Cc2ccc([As](=O)(O)O)cc2)cc1` [NSC 48300], the “reduction of ATX-stimulated breast cancer cell invasion” value in test [1] is given as “could be reduced”. The “type of inhibition of ATX PDE activity” value in test [2] is listed as “competitive inhibition”. Moreover, the Ki in test [2] (competitive inhibition equation (Eq. 3), read-out: KI, ATX PDE activity) was found to be 0.0475 µM. In addition, the “inhibition of ATX-induced stimulation of melanoma cell motility” value in test [3] is reported as “inhibited in a dose-dependent manner”. Further, in test [4], the “type of inhibition of ATX lysoPLD activity” value is “competitively inhibits” and the Ki came to 0.24 µM.

In the case of `Oc1c(Cl)cc(Cl)cc1Sc1cc(Cl)cc(Cl)c1O` [Bithionol], in test [1], the “reduction of ATX-stimulated breast cancer cell invasion” value was “could be reduced”. Moreover, in test [2], the “type of inhibition of ATX PDE activity” value is “mixed, noncompetitive inhibition mechanism” and the “α value from general steady-state inhibition equation (Eq. 2)” value is on record as 3.0 (±2.3). Further, the Ki in test [2] (read-out: KI (dissociation equilibrium constant for inhibitor binding), ATX PDE activity) is 60 µM. Further, the “inhibition of ATX-induced stimulation of melanoma cell motility” value in test [3] is reported as “inhibited in a dose-dependent manner”. In addition, in test [4], the “type of inhibition of ATX lysoPLD activity” value is reported as “competitively inhibits” and the Ki amounted to 66 µM.
